# According to ChEMBL document CHEMBL1201862, “PubChem BioAssay data set” (2004):
# Active and inactive are the calls of the source.
# Tests used:
# Estrogen receptor = molecular target: T1, Estrogen receptor (Homo sapiens, UniProt P03372); assay: blockers of SRC-3 recruitment to ERα – biochemical, ELISA, streptavidin-HRP readout, orthogonal assay, confirmation (AID 1079)
# T1 sequence (P03372 whole entry): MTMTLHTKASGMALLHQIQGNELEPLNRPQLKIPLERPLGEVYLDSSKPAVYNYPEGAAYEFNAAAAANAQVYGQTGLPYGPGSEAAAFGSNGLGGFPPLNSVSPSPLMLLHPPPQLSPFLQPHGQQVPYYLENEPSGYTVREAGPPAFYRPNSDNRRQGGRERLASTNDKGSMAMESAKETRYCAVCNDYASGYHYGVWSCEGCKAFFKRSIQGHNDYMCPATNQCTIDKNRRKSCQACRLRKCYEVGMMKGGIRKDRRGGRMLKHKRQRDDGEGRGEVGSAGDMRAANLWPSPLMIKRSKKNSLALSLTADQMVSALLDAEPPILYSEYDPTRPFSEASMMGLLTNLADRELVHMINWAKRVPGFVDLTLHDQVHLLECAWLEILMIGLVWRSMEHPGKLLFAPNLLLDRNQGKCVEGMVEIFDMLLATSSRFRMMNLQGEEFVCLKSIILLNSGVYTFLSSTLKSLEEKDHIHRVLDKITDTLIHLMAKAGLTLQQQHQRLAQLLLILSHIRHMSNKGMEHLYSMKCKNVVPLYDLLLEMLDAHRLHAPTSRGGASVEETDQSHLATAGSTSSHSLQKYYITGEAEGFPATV
# [1] = molecular target: Epstein-Barr nuclear antigen 1 (Epstein-Barr virus (strain B95-8) (HHV-4) (Human herpesvirus 4), UniProt P03211); assay: inhibition of EBV nuclear antigen 1 DNA binding – biochemical, fluorescence polarization, 1536-well, dose response (AID 2381); parameters: species or system human gammaherpesvirus 4;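 also: fluorescence polarization of a Cy5 DNA probe bound by EBNA-1 protein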
# Epstein-Barr nuclear antigen 1, sequence (P03211 whole entry): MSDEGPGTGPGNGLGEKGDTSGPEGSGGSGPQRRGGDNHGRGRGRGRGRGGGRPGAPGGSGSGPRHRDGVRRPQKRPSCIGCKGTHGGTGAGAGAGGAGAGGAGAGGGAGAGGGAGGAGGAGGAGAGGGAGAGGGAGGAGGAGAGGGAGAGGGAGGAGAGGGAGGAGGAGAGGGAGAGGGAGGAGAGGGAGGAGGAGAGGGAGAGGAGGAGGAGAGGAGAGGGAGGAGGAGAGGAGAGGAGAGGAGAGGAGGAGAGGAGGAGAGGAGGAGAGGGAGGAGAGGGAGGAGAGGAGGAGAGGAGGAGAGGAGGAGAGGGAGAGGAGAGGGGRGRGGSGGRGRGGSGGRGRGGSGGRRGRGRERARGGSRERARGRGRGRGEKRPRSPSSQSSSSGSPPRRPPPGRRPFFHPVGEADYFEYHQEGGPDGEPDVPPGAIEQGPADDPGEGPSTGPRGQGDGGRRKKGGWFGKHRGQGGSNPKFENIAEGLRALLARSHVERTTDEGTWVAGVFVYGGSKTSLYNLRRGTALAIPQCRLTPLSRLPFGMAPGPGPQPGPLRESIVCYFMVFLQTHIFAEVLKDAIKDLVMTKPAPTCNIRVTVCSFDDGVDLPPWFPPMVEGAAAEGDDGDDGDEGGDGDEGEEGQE
# [2] = molecular target: Lytic switch protein BZLF1 (Epstein-Barr virus (strain B95-8) (HHV-4) (Human herpesvirus 4), UniProt P03206); assay: inhibition of BZLF1 ZTA DNA binding – biochemical, fluorescence polarization, Epstein-Barr virus, 1536-well, counter-screen for EBNA-1 inhibitor project, dose response (AID 2377); parameters: species or system human gammaherpesvirus 4;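 also: fluorescence polarization of Cy5-labelled ZRE DNA probe bound by purified Zta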
# Lytic switch protein BZLF1, sequence (P03206 whole entry, the tested form may be a part): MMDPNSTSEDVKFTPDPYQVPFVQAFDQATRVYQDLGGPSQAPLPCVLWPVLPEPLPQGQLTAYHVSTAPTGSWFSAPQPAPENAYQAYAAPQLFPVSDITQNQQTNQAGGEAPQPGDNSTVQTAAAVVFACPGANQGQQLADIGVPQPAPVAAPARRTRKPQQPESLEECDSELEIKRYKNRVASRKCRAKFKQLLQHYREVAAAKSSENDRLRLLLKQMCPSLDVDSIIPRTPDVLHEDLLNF
# [3] = molecular target: T2, Oxysterols receptor LXR-beta (Homo sapiens, UniProt P55055); format: functional, cell-based;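 also: agonist activity at LXR measured by a cell-based luminescence readout across a dose range, run as a counterscreen for daf-12 agonists; HEK293 cells with Gal4-LXR fusion and GAL4-driven luciferase reporter; potency for activation of Gal4-LXR reporter so compounds are agonists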
# T2 sequence (P55055 whole entry): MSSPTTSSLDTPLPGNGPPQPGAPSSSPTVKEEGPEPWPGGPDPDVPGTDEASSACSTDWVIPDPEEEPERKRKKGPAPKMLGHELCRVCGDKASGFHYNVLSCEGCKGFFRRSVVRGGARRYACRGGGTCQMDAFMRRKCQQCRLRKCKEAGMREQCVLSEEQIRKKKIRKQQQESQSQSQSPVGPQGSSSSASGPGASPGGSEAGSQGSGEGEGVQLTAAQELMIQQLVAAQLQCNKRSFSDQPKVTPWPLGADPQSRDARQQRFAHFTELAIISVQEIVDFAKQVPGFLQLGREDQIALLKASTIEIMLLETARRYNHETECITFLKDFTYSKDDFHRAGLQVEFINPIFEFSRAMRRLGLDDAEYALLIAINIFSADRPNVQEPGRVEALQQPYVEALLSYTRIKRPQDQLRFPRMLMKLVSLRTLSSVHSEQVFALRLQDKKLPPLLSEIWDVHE
Structure (SMILES),IC50 (Estrogen receptor),IC50 [1],IC50 [2],EC50 [3]
COC(=O)c1ccc2c(=O)n(CCCC(=O)N3CCN(c4cccc(Cl)c4)CC3)c(=S)[nH]c2c1,18.7 µM (not active),,,
COc1ccc2oc(C(=O)Nc3nccs3)c(C)c2c1,,21 µM (not active),> 111 µM (not active),> 67.5 µM (inactive)
